Laboratory results from patent US20230286934A1, “Use of Multi-Kinase Inhibitors to Treat RNA Virus Infections” (priority 2020, published 2023).
Like-named read-outs stand apart in the source and are kept apart here.

What was measured:
SARS-CoV-2 = assay: microbe, parasite or virus in culture; type: cell-based; details: for IC50: read-out: IC50 of inhibition of the replication of SARS-CoV-2
Vero E6 cells = details: MTT assay, uninfected Vero E6 cells, same compound dilutions
SARS-CoV2 WA-2020 strain [1] = type: cell-based; details: Vero E6, 2000 cells/well, MOI 0.05, 72 hours
SARS-CoV2 WA-2020 strain [2] = type: cell-based; details: Vero E6, 40,000 cells/well, MOI 0.01, 72 hours
SARS-CoV2 WA-2020 strain [3] = type: cell-based; details: Vero E6, 40,000 cells/well, MOI 0.01, 72 hours supernatant
[4] = Severe acute respiratory syndrome coronavirus 2, Vero C1008, 48 h

## CCN(CCO)CCCC(C)Nc1ccnc2cc(Cl)ccc12 (stereo not drawn) [Hydroxy-Chloroquine]
SARS-CoV-2; [4]
  IC50: 733 nM

## CN1CCN(c2ccc(Nc3ncc4cc(C#N)c(=O)n(C5CCCC5)c4n3)cc2)CC1 [ON123300]
SARS-CoV-2; Vero E6 cells, negative control, data not shown
  effect on viral replication: no effect on viral replication

## CCC(CC)COC(=O)[C@H](C)N[P@](=O)(OC[C@H]1O[C@@](C#N)(c2ccc3c(N)ncnn23)[C@H](O)[C@@H]1O)Oc1ccccc1 [Remdesivir]
SARS-CoV-2; [4]
  IC50: 826 nM

## O=C1Nc2cc(S(=O)(=O)Cc3c(Cl)cccc3Cl)ccc2S/C1=C\c1ccc(O)c([N+](=O)[O-])c1 [compound 108600]
Vero E6 cells
  effect on the viability of Vero E6 cells: little or no effect
SARS-CoV2 WA-2020 strain [1]
  release of NP protein / virus from infected cells: inhibited SARS-CoV-2 infection of Vero cells in a dose dependent manner
SARS-CoV-2; Vero E6 cells, 2,000 cells/well, MOI 0.025, 48 h, percent infected cells (NP immunostain)
  IC50: 13 nM
SARS-CoV-2; Vero E6 cells, relative to Remdesivir
  fold more effective/active than Remdesivir (IC50, SARS-CoV-2 replication): approximately 63 fold
SARS-CoV2 WA-2020 strain [2]
  release of NP protein from infected cells into the medium: inhibition was noted only with 10 µM concentration
SARS-CoV2 WA-2020 strain [3]
  infectious titer of released virus (plaque assay): correlated to the infectious titers
